From BindingDB's records for patent US20250163061 (Bala Therapeutics, 2025)
pEC50: −log10 of the molar value.

The molecules below were run against T1, Menin (Homo sapiens, UniProt O00255) (assay: Primary Assay Used to Determine Potency of MEN1 Activity Inhibition).
T1 sequence (O00255 whole entry): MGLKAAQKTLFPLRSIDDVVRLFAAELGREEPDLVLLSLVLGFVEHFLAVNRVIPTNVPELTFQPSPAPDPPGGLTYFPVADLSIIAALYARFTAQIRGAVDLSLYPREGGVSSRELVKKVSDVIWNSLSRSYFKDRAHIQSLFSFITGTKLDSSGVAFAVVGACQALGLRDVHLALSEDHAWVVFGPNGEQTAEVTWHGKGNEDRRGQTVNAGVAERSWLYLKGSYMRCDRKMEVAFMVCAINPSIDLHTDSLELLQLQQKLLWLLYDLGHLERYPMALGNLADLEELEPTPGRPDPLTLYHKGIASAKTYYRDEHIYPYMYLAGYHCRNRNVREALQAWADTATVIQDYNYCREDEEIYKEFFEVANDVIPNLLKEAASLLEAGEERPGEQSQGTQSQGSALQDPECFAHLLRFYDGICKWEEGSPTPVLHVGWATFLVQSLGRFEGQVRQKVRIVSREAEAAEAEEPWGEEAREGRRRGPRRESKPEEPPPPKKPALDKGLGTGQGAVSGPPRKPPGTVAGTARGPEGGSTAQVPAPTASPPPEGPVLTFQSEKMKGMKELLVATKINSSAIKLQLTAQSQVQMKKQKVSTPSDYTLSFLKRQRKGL
Protocol: Compound activity was determined using recombinant MEN1 protein (Creativebiomart, Cat #MEN1-35H) and a custom fluorescein-labeled MLL4-43 peptide (Eton Bioscience Inc.). Interaction between MEN1 and MLL4-43 in the presence of compounds was determined by fluorescence polarization assay using a Microplate Reader ClarioStar Plus. The reaction was carried out in assay buffer (50 mM TRIS-HCl pH 7.4-7.6, 50 mM NaCl, 1 mM DTT, 0.1 mg/ml BSA). The compounds were dispensed on a 384 well Diamond Well Plate (Axigen, Cat #P-384-120SQ-C-S) using the Biomek FX liquid handling system at 100× solutions of compounds in DMSO. 2×MEN1 mix (final concentration of MEN1 10 nM) was prepared in Assay buffer and 10 μl of mixture per well was added into 384 w white Reaction plate with NBS (Corning, Cat #4513). 10 μl of Assay buffer w/o MEN1 was used for negative control. Plates were centrifuged for 1 min at 100 g. Next step the Compounds were added to Reaction plate using Biomek station via following steps: 3 μl of 100× compounds (in DMSO) were mixed thoroughly with 27 μl Assay Buffer, then 2 μl of this mixture was added to Reaction plate with 10 μl of MEN1 mix. Plates were centrifuged for 1 min at 100 g and incubated for 20 min at room temperature. Next 8 μL of MLL4-43 peptide per well was added to final concentration of MLL 0.5 nM. Plates were incubated for 1 hour at room temperature. Then fluorescence polarization was measured using Microplate Reader.

pEC50, > 7.12:
Cc1c(CN2CCC3(CC2)CN(c2ncnc4ccc(CC(F)(F)F)cc24)C3)ccc2c1cc(C#N)n2CCN1CCNC1=O
Cc1c(CN2CCC3(CC2)CN(c2ncnc4ccc(CC(F)(F)F)cc24)C3)ccc2c1cc(C#N)n2CC12CC(NS(C)(=O)=O)(C1)C2
N#Cc1cc2cc(CN3CCC4(CC3)CN(c3ncnc5ccc(CC(F)(F)F)cc35)C4)ccc2[nH]1
Cc1c(CN2CCC3(CC2)CN(c2ncnc4ccc(OC(F)(F)F)cc24)C3)ccc2c1cc(C#N)n2C[C@@H]1CNC(=O)CO1 [US20250163061, Compound 1]
Cc1c(CN2CCC3(CC2)CN(c2ncnc4ccc(CC(F)(F)F)cc24)C3)ccc2c1cc(C#N)n2CC1CCNC(=O)CO1 (stereo not drawn) [US20250163061, Compound 2]
Cc1c(CN2CCC3(CC2)CN(c2ncnc4ccc(CC(F)(F)F)cc24)C3)ccc2c1cc(C#N)n2CC1CNC(=O)NC1 [US20250163061, Compound 4]
Cc1c(CN2CCC3(CC2)CN(c2ncnc4ccc(CC(F)(F)F)cc24)C3)ccc2c1cc(C#N)n2CC1CCNC(=O)CC1 (stereo not drawn) [US20250163061, Compound 5]
Cc1c(CN2CCC3(CC2)CN(c2ncnc4ccc(CC(F)(F)F)cc24)C3)ccc2c1cc(C#N)n2CC1CNC(=O)C(C)O1 (stereo not drawn) [US20250163061, Compound 7]
Cc1c(CN2CCC3(CC2)CN(c2ncnc4ccc(CC(F)(F)F)c(F)c24)C3)ccc2c1cc(C#N)n2CC1CNC(=O)CO1 (stereo not drawn) [US20250163061, Compound 12]
Cc1c(CN2CCC3(CC2)CN(c2ncnc4ccc(CC(F)(F)F)cc24)C3)ccc2c1cc(C#N)n2C(C)CCN1CCN(S(C)(=O)=O)CC1 (stereo not drawn) [US20250163061, Compound 13]
Cc1c(CN2CCC3(CC2)CN(c2ncnc4ccc(CC(F)(F)F)cc24)C3)ccc2c1cc(C#N)n2Cc1ccc(=O)[nH]c1 [US20250163061, Compound 14]
Cc1c(CN2CCC3(CC2)CN(c2ncnc4ccc(CC(F)(F)F)cc24)C3)ccc2c1cc(C#N)n2CC1CN(C)C(=O)CO1 (stereo not drawn) [US20250163061, Compound 15]
Cc1c(CN2CCC3(CC2)CN(c2ncnc4ccc(CC(F)(F)F)cc24)C3)ccc2c1cc(C#N)n2CC1CN(C)S(=O)(=O)CO1 (stereo not drawn) [US20250163061, Compound 16]
CCCCS(=O)(=O)N1CCN(C(C)Cn2c(C#N)cc3c(C)c(CN4CCC5(CC4)CN(c4ncnc6ccc(CC(F)(F)F)cc46)C5)ccc32)CC1 (stereo not drawn) [US20250163061, Compound 17]
COc1cc2c(cc1CN1CCC3(CC1)CN(c1ncnc4ccc(CC(F)(F)F)cc14)C3)cc(C#N)n2CC(C)N1CCN(S(C)(=O)=O)CC1 (stereo not drawn) [US20250163061, Compound 20]
Cc1c(CN2CCC3(CC2)CN(c2ncnc4ccc(CC(F)(F)F)cc24)C3)ccc2c1cc(C#N)n2CC1CNS(=O)(=O)CO1 (stereo not drawn) [US20250163061, Compound 21]
Cc1c(CN2CCC3(CC2)CN(c2ncnc4ccc(CC(F)(F)F)cc24)C3)ccc2c1cc(C#N)n2CC1CCNC(=O)C1 (stereo not drawn) [US20250163061, Compound 22]
Cc1c(CN2CCC3(CC2)CN(c2ncnc4ccc(CC(F)(F)F)cc24)C3)ccc2c1cc(C#N)n2[C@H](C)CN1CCN(S(C)(=O)=O)CC1 [US20250163061, Compound 23]
Cc1c(CN2CCC3(CC2)CN(c2ncnc4ccc(CC(F)(F)F)cc24)C3)ccc2c1cc(C#N)n2[C@@H](C)CN1CCN(S(C)(=O)=O)CC1 [US20250163061, Compound 24]
CCS(=O)(=O)N1CCN([C@H](C)Cn2c(C#N)cc3c(C)c(CN4CCC5(CC4)CN(c4ncnc6ccc(CC(F)(F)F)cc46)C5)ccc32)C[C@@H]1C [US20250163061, Compound 25]
CCS(=O)(=O)N1CCN([C@@H](C)Cn2c(C#N)cc3c(C)c(CN4CCC5(CC4)CN(c4ncnc6ccc(CC(F)(F)F)cc46)C5)ccc32)C[C@@H]1C [US20250163061, Compound 26]
Cc1c(CN2CCC3(CC2)CN(c2ncnc4ccc(CC(F)(F)F)cc24)C3)ccc2c1cc(C#N)n2C[C@@H](C)N1CCN(S(C)(=O)=O)[C@@H](C)C1 [US20250163061, Compound 27]
Cc1c(CN2CCC3(CC2)CN(c2ncnc4ccc(CC(F)(F)F)cc24)C3)ccc2c1cc(C#N)n2C[C@H](C)N1CCN(S(C)(=O)=O)[C@@H](C)C1 [US20250163061, Compound 28]
Cc1c(CN2CCC3(CC2)CN(c2ncnc4ccc(CC(F)(F)F)cc24)C3)ccc2c1cc(C#N)n2CC(C)N1CCCN(S(C)(=O)=O)CC1 (stereo not drawn) [US20250163061, Compound 29]
Cc1c(CN2CCC3(CC2)CN(c2ncnc4cc(F)c(CC(F)(F)F)cc24)C3)ccc2c1cc(C#N)n2CC(C)N1CCN(S(C)(=O)=O)CC1 (stereo not drawn) [US20250163061, Compound 30]
Cc1c(CN2CCC3(CC2)CN(c2ncnc4ccc(CC(F)(F)F)cc24)C3)ccc2c1cc(C#N)n2C[C@H]1CC[C@H](NS(C)(=O)=O)CC1 [US20250163061, Compound 40]
Cc1c(CN2CCC3(CC2)CN(c2ncnc4ncc(CC(F)(F)F)nc24)C3)ccc2c1cc(C#N)n2CC(C)N1CCN(S(C)(=O)=O)CC1 (stereo not drawn) [US20250163061, Compound 42]
Cc1c(CN2CCC3(CC2)CN(c2ncnc4ccc(CC(F)(F)F)cc24)C3)ccc2c1cc(C#N)n2CCCCN1CCN(S(C)(=O)=O)CC1 [US20250163061, Compound 44]
Cc1c(CN2CCC3(CC2)CN(c2ncnc4cnc(CC(F)(F)F)cc24)C3)ccc2c1cc(C#N)n2CC(C)N1CCN(S(C)(=O)=O)CC1 (stereo not drawn) [US20250163061, Compound 45]
Cc1c(CN2CCC3(CC2)CN(c2ncnc4ccc(CC(F)(F)F)cc24)C3)ccc2c1cc(C#N)n2CC1CNC(=O)C1 (stereo not drawn) [US20250163061, Compound 51]
Cc1c(CN2CCC3(CC2)CN(c2ncnc4ccc(CC(F)(F)F)cc24)C3)ccc2c1cc(C#N)n2CC1CCC(=O)N1 (stereo not drawn) [US20250163061, Compound 52]
Cc1c(CN2CCC3(CC2)CN(c2ncnc4ccc(CC(F)(F)F)c(F)c24)C3)ccc2c1cc(C#N)n2C[C@H](C)N1CCN(S(C)(=O)=O)CC1 [US20250163061, Compound 57]
CNc1nc(N2CC3(CCN(Cc4ccc5c(cc(C#N)n5C[C@@H]5CNC(=O)CO5)c4C)CC3)C2)c2cc(CC(F)(F)F)ccc2n1 [US20250163061, Compound 58]
CC(=O)NC12CC(Cn3c(C#N)cc4c(C)c(CN5CCC6(CC5)CN(c5ncnc7ccc(CC(F)(F)F)cc57)C6)ccc43)(C1)C2 [US20250163061, Compound 59]
CNC(=O)NC12CC(Cn3c(C#N)cc4c(C)c(CN5CCC6(CC5)CN(c5ncnc7ccc(CC(F)(F)F)cc57)C6)ccc43)(C1)C2 [US20250163061, Compound 60]
Cc1c(CN2CCC3(CC2)CN(c2ncnc4ccc(CC(F)(F)F)cc24)C3)ccc2c1cc(C#N)n2CC12CC(NS(N)(=O)=O)(C1)C2 [US20250163061, Compound 61]
Cc1c(CN2CCC3(CC2)CN(c2ncnc4ccc(CC(F)(F)F)cc24)C3)ccc2c1cc(C#N)n2CC12CC(N3CC(=O)NS3(=O)=O)(C1)C2 [US20250163061, Compound 62]
C=CC(=O)N1CCN(C(C)Cn2c(C#N)cc3c(C)c(CN4CCC5(CC4)CN(c4ncnc6ccc(CC(F)(F)F)cc46)C5)ccc32)CC1 (stereo not drawn) [US20250163061, Compound 63]
Cc1c(CN2CCC3(CC2)CN(c2ncnc4ccc(CC(F)(F)F)cc24)C3)ccc2c1cc(C#N)n2CC(C)N1CCN(S(=O)(=O)C(C)C)CC1 (stereo not drawn) [US20250163061, Compound 64]
C=CC(=O)N1CCN(CCCCn2c(C#N)cc3c(C)c(CN4CCC5(CC4)CN(c4ncnc6ccc(CC(F)(F)F)cc46)C5)ccc32)CC1 [US20250163061, Compound 65]
C=CC(=O)N1CCN(CCCn2c(C#N)cc3c(C)c(CN4CCC5(CC4)CN(c4ncnc6ccc(CC(F)(F)F)cc46)C5)ccc32)CC1 [US20250163061, Compound 66]
Cc1c(CN2CCC3(CC2)CN(c2ncnc4ccc(CC(F)(F)F)nc24)C3)ccc2c1cc(C#N)n2CC(C)N1CCN(S(C)(=O)=O)CC1 (stereo not drawn) [US20250163061, Compound 67]
Cc1c(CN2CCC3(CC2)CN(c2ncnc4ccc(CC(F)(F)F)cc24)C3)ccc2[nH]c(C#N)cc12 [US20250163061, Compound 68]
